We go through two compounds from publication PMC4303209, “A novel phosphatidylinositol 3-kinase (PI3K) inhibitor directs a potent FOXO-dependent, p53-independent cell cycle arrest phenotype characterized by the differential induction of a subset of FOXO-regulated genes” (Breast Cancer Research : BCR, 2014).

Assay [1] relates to serine 253-phosphorylated FOXO3a. As to the kind of experiment: Immunoblot of FOXO3a phosphorylation in MCF-7 or U2OS cells. In kind it is cell-based, human. As to conditions: breast or osteosarcoma cancer cells; six hours post treatment. Background: Immunoblotting shows a protein as a band on a membrane.
For the next assay, the system named is total p53. As to the kind of experiment: Immunoblot of total p53.
The subject of assay [2] is MCF-7 breast cancer cells. As to the kind of experiment: Quantitative real time PCR (qRT-PCR) of selected genes. It is filed as cell-based, human. On the procedure: Total RNA was extracted by using Tri-reagent (Sigma-Aldrich). Real-time PCR was performed on a CFX-96 PCR machine (BioRad) using the SsoFastSYBR™ green master mix (BioRad) and following the manufacturer’s guidelines. Data was analysed as described in [29] using the 2^-ΔΔCT methodology.
Figure 4 Genes regulated by FOXO transcription factor and validation of key differentially regulated genes. […] Gene expression in MCF-7 breast cancer cells treated at six and twelve hours with (B) 10 nM ETP-45658 or (C) 10 nM PI-103. In each graph, error bars indicate +/− standard deviation with each gene and condition evaluated in triplicate from N = 3 independent experiments. For each analysis P values are shown (<0.05 is considered significant).
Our genome-wide array and in vitro studies have elucidated that the predominant pathway activated following exposure to ETP-45658 (as well as following PI-103 treatment) was FOXO-mediated cell cycle arrest. […] To strengthen our findings further, we validated our genome-wide array results by quantitative real-time PCR (qRT-PCR). Based on our gene expression profiling data, we selected 11 differentially regulated key genes. […] In our last group, we selected the cyclin-dependent kinase inhibitor 1A (p21), which is regulated by both FOXO and p53, BCL2 binding component 3 (PUMA) and BCL2-associated X (BAX) that are regulated by p53. MCF-7 breast cancer cells were treated with ETP-45658 and six or twelve hours post treatment the total RNA was extracted. We evaluated the expression profile of each gene (normalised to GAPDH using the 2^-ΔΔCT method described in our Materials and methods section) (Figure 4B). […] This response was conserved between the MCF-7 breast cancer cell line (as we would predict based on our array studies) as well as the U2OS osteosarcoma cell line (data not shown).

Entries after “also recorded” stand apart in the source; their conditions may differ.

Description for total p53: Sub-confluent cells were incubated under the conditions indicated in each figure and washed twice with phosphate-buffered saline (PBS) prior to lysis. RIPA lysis buffer was added (50 mM TrisHCl, 150 mM NaCl, 1% NP-40, 2 mM Na3VO4, 100 mM NaF, 20 mM Na4P2O7 and 1x protease inhibitor cocktail (Roche Molecular Biochemicals, Indianapolis, IN, USA). The membranes were incubated overnight for total AKT, phospho-serine-473-AKT, total p53 (DO1) (Santa Cruz Biotechnology, Dallas, TX, USA), phospho-threonine 32-FOXO3a (Merck Millipore, Darmstadt, Germany) and α-tubulin (Sigma-Aldrich). Secondary antibodies used were anti-mouse, goat or rabbit immunoglobulin G (IgG)-horseradish peroxidase (HRP) (Santa Cruz Biotechnology) as appropriate. Visualisation of bands was achieved using ChemiDoc imaging system (BioRad Laboratories Inc, Hercules, CA, USA) after membrane treatment with Ecl + (Amersham, Little Chalfont, UK).

For `Cn1ncc2c(N3CCOCC3)nc(-c3cccc(O)c3)nc21` [ETP-45658], the “serine 253-phosphorylated FOXO3a” value in assay [1] was “almost complete absence”. For the same compound, in the assay on total p53, the “accumulation of total p53” value is reported as “little to no p53 accumulation; also recorded: neither ETP-45658 (nor PI-103) triggered an accumulation”. Besides, in assay [2], the “NISCH expression (array and qRT-PCR)” value is “significantly upregulated”; the “qRT-PCR induction of p53-dependent genes” value is given as “no significant induction”. The “qRT-PCR CCND1 transcription” value in assay [2] (10 nM) is reported as “significantly reduced”. For the same compound, in assay [2] (10 nM, six or twelve hours), the “qRT-PCR expression of CCNG2, Cited2 and BRCA1” value is “highly significant induction”. The “qRT-PCR TRAIL, FASLG or BCL2L11 transcription” value in assay [2] (six hours post treatment) is “no significant change”. Moreover, the “qRT-PCR TRAIL, FASLG or BCL2L11 transcription” value in assay [2] (twelve hours post treatment) is “slight increase (less than two-fold)”.

Consider `Oc1cccc(-c2nc(N3CCOCC3)c3oc4ncccc4c3n2)c1` [PI-103], for which the “serine 253-phosphorylated FOXO3a” value in assay [1] is recorded as “almost complete absence”. Moreover, the “accumulation of total p53” value in the assay on total p53 is on record as “neither ETP-45658 (nor PI-103) triggered an accumulation”. The “NISCH expression (array and qRT-PCR)” value in assay [2] is “downregulated”. For the same compound, the “qRT-PCR CCND1 transcription” value in assay [2] (10 nM) was “significantly reduced”.
